What was measured:
[1] = tested on: normal NK cells expanded with K562-aAPC; assay: drug sensitivity score (DSS) (DSS units); higher = more sensitive; extreme values may be limits of the assay; settings: 72 h; IL-2 2.5 ng/mL
Method: (§1)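 Drug sensitivity and resistance testing on K562-aAPC-expanded normal NK cells: 5 concentrations (10-fold steps over a 10,000-fold range), 72 h at 37 °C, viability by CellTiter-Glo normalised to DMSO and benzethonium chloride controls; DSS from the fitted curve.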

[2] = tested on: normal primary NK cells, pool 1 (3 donors), resting (IL-2 0 ng/mL); assay: percent inhibition of viability; higher = more inhibition; settings: 72 h
DERL-7 (IL-2 2.5 ng/mL) [3] = assay: as above; settings: 72 h
[4] = tested on: normal primary NK cells, pool 3 (3 donors) (IL-2 2.5 ng/mL); assay: as above; settings: 72 h
[5] = tested on: normal primary NK cells, pool 2 (3 donors) (IL-2 2.5 ng/mL); assay: as above; settings: 72 h
NKL (IL-2 2.5 ng/mL) [6] = assay: as above; settings: 72 h
KHYG-1 (IL-2 2.5 ng/mL) [7] = assay: as above; settings: 72 h
[8] = tested on: normal primary NK cells, pool 1 (3 donors) (IL-2 2.5 ng/mL); assay: as above; settings: 72 h
IMC-1 (IL-2 20 ng/mL) [9] = assay: as above; settings: 72 h
YT (IL-2 2.5 ng/mL) [10] = assay: as above; settings: 72 h
SNK-6 (IL-2 2.5 ng/mL) [11] = assay: as above; settings: 72 h
NK-YS (IL-2 2.5 ng/mL) [12] = assay: as above; settings: 72 h
KAI3 (IL-2 2.5 ng/mL) [13] = assay: as above; settings: 72 h
NK-92 (IL-2 2.5 ng/mL) [14] = assay: as above; settings: 72 h
[15] = tested on: normal primary NK cells, pool 1 (3 donors), resting (IL-2 0 ng/mL); assay: drug sensitivity score (DSS) (DSS units); higher = more sensitive; extreme values may be limits of the assay; settings: 72 h
DERL-7 (IL-2 2.5 ng/mL) [16] = assay: as above; settings: 72 h
[17] = tested on: normal primary NK cells, pool 3 (3 donors) (IL-2 2.5 ng/mL); assay: as above; settings: 72 h
[18] = tested on: normal primary NK cells, pool 2 (3 donors) (IL-2 2.5 ng/mL); assay: as above; settings: 72 h
NKL (IL-2 2.5 ng/mL) [19] = assay: as above; settings: 72 h
KHYG-1 (IL-2 2.5 ng/mL) [20] = assay: as above; settings: 72 h
[21] = tested on: normal primary NK cells, pool 1 (3 donors) (IL-2 2.5 ng/mL); assay: as above; settings: 72 h
IMC-1 (IL-2 20 ng/mL) [22] = assay: as above; settings: 72 h
YT (IL-2 2.5 ng/mL) [23] = assay: as above; settings: 72 h
SNK-6 (IL-2 2.5 ng/mL) [24] = assay: as above; settings: 72 h
NK-YS (IL-2 2.5 ng/mL) [25] = assay: as above; settings: 72 h
KAI3 (IL-2 2.5 ng/mL) [26] = assay: as above; settings: 72 h
NK-92 (IL-2 2.5 ng/mL) [27] = assay: as above; settings: 72 h
[28] = tested on: normal NK cells expanded with K562-aAPC; assay: percent inhibition of viability; higher = more inhibition; settings: 72 h, IL-2 2.5 ng/mL
Method: as §1

CCOc1ccn(-c2ccc(F)cc2)c(=O)c1C(=O)Nc1ccc(Oc2ccnc(N)c2Cl)c(F)c1 (max concentration tested 2500 nM)
Settings	drug sensitivity score
DERL-7 (IL-2 2.5 ng/mL) [16]	0
IMC-1 (IL-2 20 ng/mL) [22]	1.25
KAI3 (IL-2 2.5 ng/mL) [26]	0.35
KHYG-1 (IL-2 2.5 ng/mL) [20]	0
NK-92 (IL-2 2.5 ng/mL) [27]	0.14
NK-YS (IL-2 2.5 ng/mL) [25]	0.06
NKL (IL-2 2.5 ng/mL) [19]	0
SNK-6 (IL-2 2.5 ng/mL) [24]	0.23
YT (IL-2 2.5 ng/mL) [23]	1.85
[1]	0
[15]	0
[17]	0
[18]	0
[21]	0

percent inhibition of viability [%]
Settings	0.25 nM	2.5 nM	25 nM	250 nM	2500 nM
DERL-7 (IL-2 2.5 ng/mL) [3]	0.56	6.06	-1.35	-3.94	-13.7
IMC-1 (IL-2 20 ng/mL) [9]	1.35	4.61	9.25	10.7	18.1
KAI3 (IL-2 2.5 ng/mL) [13]	-2.82	-5.11	1.22	-8.32	20.1
KHYG-1 (IL-2 2.5 ng/mL) [7]	2.8	3.63	7.75	3.92	7.23
NK-92 (IL-2 2.5 ng/mL) [14]	3.4	-2.02	21.5	-9.18	16.5
NK-YS (IL-2 2.5 ng/mL) [12]	2.13	-0.09	0.55	-3.25	13.2
NKL (IL-2 2.5 ng/mL) [6]	-8.21	-0.56	-2.88	6.9	-2.79
SNK-6 (IL-2 2.5 ng/mL) [11]	22.9	33.8	31.2	18.3	22.9
YT (IL-2 2.5 ng/mL) [10]	2.07	4.23	5.47	0.52	37
[2]	1.56	-12.4	-1.07	-26.3	-16.3
[4]	-11.7	1.36	-4.15	-4.08	-3.34
[5]	-3.75	2.69	-0.75	-6	3.09
[8]	0.3	-5.73	-0.6	-11.2	-8.87
[28]	2.01	1.6	-0.61	0.57	7.12

Cn1cnc2c(F)c(Nc3ccc(Br)cc3F)c(C(=O)NOCCO)cc21 [Binimetinib] (max concentration tested 1000 nM)
Settings	drug sensitivity score
DERL-7 (IL-2 2.5 ng/mL) [16]	3.71
IMC-1 (IL-2 20 ng/mL) [22]	0
KAI3 (IL-2 2.5 ng/mL) [26]	4.5
KHYG-1 (IL-2 2.5 ng/mL) [20]	5.14
NK-92 (IL-2 2.5 ng/mL) [27]	0
NK-YS (IL-2 2.5 ng/mL) [25]	0.72
NKL (IL-2 2.5 ng/mL) [19]	10.4
SNK-6 (IL-2 2.5 ng/mL) [24]	0
YT (IL-2 2.5 ng/mL) [23]	0.31
[1]	0.91
[15]	1.99
[17]	0
[18]	0
[21]	4.75

percent inhibition of viability [%]
Settings	0.1 nM	1 nM	10 nM	100 nM	1000 nM
DERL-7 (IL-2 2.5 ng/mL) [3]	1.19	7.3	10.5	16.3	33.7
IMC-1 (IL-2 20 ng/mL) [9]	-6	-0.56	-0.39	4.96	6.74
KAI3 (IL-2 2.5 ng/mL) [13]	-1.37	4.03	7.85	24.3	29.6
KHYG-1 (IL-2 2.5 ng/mL) [7]	-8.34	-1.29	0.25	24.1	42.7
NK-92 (IL-2 2.5 ng/mL) [14]	-10.1	-5.18	-13.1	0.36	-1.28
NK-YS (IL-2 2.5 ng/mL) [12]	-5.25	-2.09	-0.43	5.51	15.3
NKL (IL-2 2.5 ng/mL) [6]	-7.91	-8.09	19.3	43.6	53.2
SNK-6 (IL-2 2.5 ng/mL) [11]	-19.8	-4.3	-10.5	-10.4	-8.36
YT (IL-2 2.5 ng/mL) [10]	-6.43	-3.81	-0.11	2.57	13.4
[2]	-4.5	21.4	12.5	9.21	17.1
[4]	-5.24	2.75	-0.18	2.58	2.52
[5]	-7.84	-6.09	8.89	-1.5	11
[8]	-6.5	12.6	14.8	18.1	22.7
[28]	1.57	-5.49	-0.07	6.65	16.2
